Results published in patent US20220175809A1, “TREATMENT AND PREVENTION OF INFECTIONS BY HERPESVIRIDAE WITH DELPHINIDIN-3-GLUCOSIDE” (Evonik Operations GmbH, priority 2019, published 2022).

How the values were obtained:
HSV-1 = test: Anti-viral assay, GFP-encoding HSV-1 infection of BHK cells (infected cells counted); type: cell-based, herpes simplex virus 1; settings: BHK cells treated with anthocyanins, then GFP-encoding HSV-1
Description: (§1) BHK cells were incubated with decreasing concentration of the solubilized test compounds for approx. 1 h. All concentrations were analyzed by six independent replicates on a black 96 well plate (PerkinElmer). Cells were infected with GFP-encoding wildtype HSV-1 virus and incubated for two days. Two days after infection, HSV-1-infected cells and GFP expressing cells were directly counted using the PerkinElmer Ensight system with optical cell culture plates. The instrument was controlled by manual counting. Anti-viral assays for HHV8 were performed accordingly. To not only analyze the virus entry and early phase of virus replication of infection but also later phases of viral replication, the test assay was adjusted accordingly. BHK cells were incubated with test compounds and subsequently infected with HSV-1. Two days after infection supernatants were collected, centrifuged to remove detached cells and used to infect BHK cells. After two additional days infected cells were quantified using the Ensight system.
The cells were subsequently infected with GFP-encoding HSV at a multiplicity of infection of 2.5, and infected GFP-expressing cells were counted one day after infection using the PerkinElmer Ensight system. […] Thus, the sugar is not required as potential co-factor for drug uptake.

HHV-8 = test: Anti-viral assay, GFP-encoding HHV-8 infection (infected cells counted); type: cell-based, Herpes virus 8; settings: materials adjusted to same anthocyanin levels, counted two days after infection
Description: as §1
The concentrations of materials were again adjusted to the same levels of anthocyanins. No treatment or only maltodextrin served as controls. The cells were subsequently infected with GFP-encoding HHV-8, and infected GFP-expressing cells were counted two days after infection using the PerkinElmer Ensight system. […] The analysis of berry extract analogue without maltodextrin and the maltodextrin control confirmed again that the sugar moiety is not required as potential co-factor for drug uptake.

In the case of OC[C@H]1OC(Oc2cc3c(O)cc(O)cc3[o+]c2-c2cc(O)c(O)c(O)c2)[C@H](O)C(O)C1O (stereo partly shown) [D3G, Delphinidin-3-glucoside], the “inhibition of HSV-1 (viral infectivity)” value (HSV-1) was “decreased viral infectivity like Healthberry® 865”, the “suppression of HHV-8 viral infectivity” value (HHV-8) was “identified as an active ingredient” and the “suppression of HHV-8 viral infectivity” value (HHV-8; listed as D3G derived from red grape extract) was “reduced the number of infected cells significantly”. For the same molecule, the “suppression of HHV-8 viral infectivity” value (HHV-8; listed as D3G from Healthberry® 865) was “reduced the number of infected cells significantly”.
